Measurements taken from patent publication US12692261B2, “Substituted heterocyclic compounds and therapeutic uses thereof” (Bayer Aktiengesellschaft, priority 2020, dated 2026).

What was measured:
full-length human CSNK1D = target: T1, full-length human CSNK1D (Homo sapiens, UniProt P48730); test: CSNK1D Assay (ADP-Glo, 1 μM ATP); assay type: biochemical; details: Table 3, read-out: CSNK1D IC50 [mol/l] (median)
T1 construct: N-terminal Glutathion-S-Transferase (GST) and full-length human CSNK1D; purchased Life Technologies PV3665; host or cells: baculovirus infected insect cells
Procedure: CSNK1D-inhibitory activity of compounds of the present invention in presence of 1 μM adenosine-tri-phosphate (ATP) was quantified employing the CSNK1 D assay as described in the following paragraphs. In essence, the enzyme activity is measured by quantification of the adenosine-di-phosphate (ADP), which is generated as a co-product of the enzyme reaction, via the “ADP-Glo™ Kinase Assay” kit from the company Promega. This detection system works as follows: In a first step the ATP not consumed in the kinase reaction is quantitatively converted to cAMP employing an adenylate cyclase (“ADP-Glo-reagent”), then the adenylate cyclase is stopped and the ADP generated in the kinase reaction converted to ATP which generates in a luciferase-based reaction a glow-luminescence signal (“Kinase Detection Reagent”).
Recombinant fusion protein of N-terminal Glutathion-S-Transferase (GST) and full-length human CSNK1D, expressed by baculovirus infected insect cells and purified via Glutathion affinity chromatography, was purchased from Life Technologies (product no. PV3665) and used as enzyme. As substrate for the kinase reaction the biotinylated peptide Btn-Ahx-[…] (C-terminus in amide form) was used which can be purchased e.g. from the company Biosyntan (Berlin-Buch, Germany).
For the assay 50 nl of a 100 fold concentrated solution of the test compound in DMSO was pipetted into a white 1536-well microtiter plate (Greiner Bio-One, Frickenhausen, Germany), 2 μL of a solution of CSNK1D in aqueous assay buffer [50 mM HEPES pH 7.5, 10% (v/v) glycerol, 10 mM MgCl2, 50 mM NaCl, 1 mM dithiothreitol, 0.01% (w/v) bovine serum albumin, 0.01% (v/v) Triton X-100] were added and the mixture was incubated for 15 min at 22° C. to allow pre-binding of the test compounds to the enzyme before the start of the kinase reaction. […] The concentration of CSNK1D was adjusted depending of the activity of the enzyme lot and was chosen appropriate to have the assay in the linear range, a typical concentration is about 0.5 ng/μL. The reaction was stopped by the addition of 2.5 μL of “ADP-Glo-reagent” (1:1.5 fold diluted with water) and the resulting mixture was incubated at 22° C. for 1 h to convert the ATP not consumed in the kinase reaction completely […]. Subsequently 2.5 μL of the “kinase detection reagent” (1.2 fold more concentrated than recommended by the producer) were added, the resulting mixture was incubated at 22° C. for 1 h and then the luminescence measured with a suitable measurement instrument (e.g. Viewlux™ from Perkin-Elmer). The amount of emitted light was taken as a measure for the amount of ADP generated and thereby for the activity of the CSNK1D.

[1] = target: T2, full-length human CSNK1A1 (Homo sapiens, UniProt P48729); test: CSNK1A1 High ATP Assay (ADP-Glo, 1 mM ATP); assay type: biochemical; details: Table 3, read-out: CSNK1A1 high ATP assay IC50 [mol/l] (median);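 further: 30 min kinase reaction at 22 °C with 100 µM peptide substrate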
T2 construct: N-terminal Glutathion-S-Transferase (GST) and full-length human CSNK1A1; purchased Life Technologies PV4174; host or cells: baculovirus infected insect cells
In short: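 GST-tagged full-length human CSNK1A1 from baculovirus-infected insect cells (typically about 0.4 ng/μL), pre-incubated with compound 15 min at 22 °C. Reaction with biotinylated peptide biotin-Ahx-KRRRAL-pS-VASLPGL at 1 mM ATP. ADP formed read by ADP-Glo luminescence.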

T2 sequence (P48729 whole entry): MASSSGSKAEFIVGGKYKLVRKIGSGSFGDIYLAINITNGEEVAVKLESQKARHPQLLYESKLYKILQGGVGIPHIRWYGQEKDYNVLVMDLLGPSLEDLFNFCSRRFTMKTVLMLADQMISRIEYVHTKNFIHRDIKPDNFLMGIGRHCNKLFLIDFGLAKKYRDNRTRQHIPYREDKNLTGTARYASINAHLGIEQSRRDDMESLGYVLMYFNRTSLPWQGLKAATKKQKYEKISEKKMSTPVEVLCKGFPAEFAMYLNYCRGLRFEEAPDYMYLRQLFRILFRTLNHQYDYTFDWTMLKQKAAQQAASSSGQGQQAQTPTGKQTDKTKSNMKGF
T1 sequence (P48730 whole entry): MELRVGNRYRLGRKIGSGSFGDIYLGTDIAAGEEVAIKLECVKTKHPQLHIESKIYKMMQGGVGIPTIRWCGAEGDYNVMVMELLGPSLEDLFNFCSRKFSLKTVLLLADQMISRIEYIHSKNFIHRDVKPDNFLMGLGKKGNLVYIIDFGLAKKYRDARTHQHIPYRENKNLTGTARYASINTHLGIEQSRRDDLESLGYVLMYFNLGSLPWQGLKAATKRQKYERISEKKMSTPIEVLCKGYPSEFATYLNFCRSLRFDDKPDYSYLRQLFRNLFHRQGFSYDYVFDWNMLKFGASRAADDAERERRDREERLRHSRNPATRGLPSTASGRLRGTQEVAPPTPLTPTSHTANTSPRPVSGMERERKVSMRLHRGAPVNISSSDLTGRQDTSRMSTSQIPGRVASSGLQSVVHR

O=C(Nc1cc(-c2[nH]c3cc(F)cnc3c2-c2ccccn2)ccn1)C(CC(F)F)c1ccc(F)cc1 (single isomer, unassigned; (-)) [Example 18, (−)-4,4-difluoro-2-(4-fluorophenyl)-N-{4-[6-fluoro-3-(pyridin-2-yl)-1H-pyrrolo[3,2-b]pyridin-2-yl]pyridin-2-yl}butanamide]
IC50 (full-length human CSNK1D): 25.4 nM
IC50 [1]: 542 nM

O=C(Nc1cc(-c2[nH]c3c(C4CCCO4)cc(F)nc3c2-c2ccccn2)ccn1)C(CC(F)F)c1ccc(F)cc1 (racemic) [Example 114, (2RS)-4,4-difluoro-2-(4-fluorophenyl)-N-(4-{5-fluoro-3-(pyridin-2-yl)-7-[(2RS)-tetrahydrofuran-2-yl]-1H-pyrrolo[3,2-b]pyridin-2-yl}pyridin-2-yl)butanamide]
IC50 (full-length human CSNK1D): 8.03 nM
IC50 [1]: 37 nM

Cc1cc2[nH]c(-c3ccnc(NC(=O)C(CC(F)F)c4ccc(F)cc4)c3)c(-c3ccccn3)c2nc1F (single isomer, unassigned) [Example 35, 4,4-difluoro-N-{4-[5-fluoro-6-methyl-3-(pyridin-2-yl)-1H-pyrrolo[3,2-b]pyridin-2-yl]pyridin-2-yl}-2-(4-fluorophenyl)butanamide]
IC50 (full-length human CSNK1D): 3.7 nM
IC50 [1]: 2.69 nM

Cc1cc2[nH]c(-c3ccnc(NC(=O)C(CC(F)F)c4ccc(F)cc4)c3)c(-c3ccccn3)c2nc1F (single isomer, unassigned) [Example 34, 4,4-difluoro-N-{4-[5-fluoro-6-methyl-3-(pyridin-2-yl)-1H-pyrrolo[3,2-b]pyridin-2-yl]pyridin-2-yl}-2-(4-fluorophenyl)butanamide]
IC50 (full-length human CSNK1D): 6.86 nM
IC50 [1]: 3.79 nM

O=C(Nc1cc(-c2[nH]c3cc(F)cnc3c2-c2ccccc2)ccn1)C(CC(F)F)c1ccc(F)cc1 (racemic) [Example 19, 4,4-difluoro-2-(4-fluorophenyl)-N-[4-(6-fluoro-3-phenyl-1H-pyrrolo[3,2-b]pyridin-2-yl)pyridin-2-yl]butanamide]
IC50 (full-length human CSNK1D): 6.92 nM
IC50 [1]: 602 nM

O=C(Nc1cc(-c2[nH]c3nccnc3c2-c2ccccn2)ccn1)C(CC(F)F)c1ccc(F)cc1 (racemic) [Example 31, (2RS)-4,4-difluoro-2-(4-fluorophenyl)-N-{4-[7-(pyridin-2-yl)-5H-pyrrolo[2,3-b]pyrazin-6-yl]pyridin-2-yl}butanamide]
IC50 (full-length human CSNK1D): 7.81 nM
IC50 [1]: 3.04 nM

O=C(Nc1cc(-c2[nH]c3c(OCC(F)F)cc(F)nc3c2-c2ccccn2)ccn1)C(CC(F)F)c1ccc(F)cc1 (single isomer, unassigned) [Example 30, (2R or S)—N-{4-[7-(2,2-difluoroethoxy)-5-fluoro-3-(pyridin-2-yl)-1H-pyrrolo[3,2-b]pyridin-2-yl]pyridin-2-yl}-4,4-difluoro-2-(4-fluorophenyl)butanamide]
IC50 (full-length human CSNK1D): 14.7 nM
IC50 [1]: 8.84 nM

O=C(Nc1cc(-c2[nH]c3c(OCC(F)(F)F)ncnc3c2-c2ccccn2)ccn1)C(CC(F)F)c1ccc(F)cc1 (single isomer, unassigned) [Example 123, (2R or S)-4,4-difluoro-2-(4-fluorophenyl)-N-{4-[7-(pyridin-2-yl)-4-(2,2,2-trifluoroethoxy)-5H-pyrrolo[3,2-d]pyrimidin-6-yl]pyridin-2-yl}butanamide]
IC50 (full-length human CSNK1D): 4.49 nM
IC50 [1]: 14 nM

O=C(Nc1cc(-c2[nH]c3cccnc3c2-c2ncccn2)ccn1)C(CC(F)F)c1ccc(F)cc1 (racemic) [Example 112, (2RS)-4,4-difluoro-2-(4-fluorophenyl)-N-[4-(3-pyrimidin-2-yl-1H-pyrrolo[3,2-b]pyridin-2-yl)-2-pyridyl]butanamide]
IC50 (full-length human CSNK1D): 16.9 nM
IC50 [1]: 217 nM

O=C(Nc1cc(-c2[nH]c3c(C4CCCO4)cc(F)nc3c2-c2ccccn2)ccn1)C(CC(F)F)c1ccc(F)cc1 (single isomer, unassigned) [Example 115, (2R or S)-4,4-difluoro-N-(4-{5-fluoro-7-[(2R or S)-oxolan-2-yl]-3-(pyridin-2-yl)-1H-pyrrolo[3,2-b]pyridin-2-yl}pyridin-2-yl)-2-(4-fluorophenyl)butanamide]
IC50 (full-length human CSNK1D): 7.02 nM
IC50 [1]: 23.1 nM
